Experimental data as given in patent US20240226072A1 (Stichting Het Nederlands Kanker Instituut, priority 2022, published 2024).

What was measured:
[1] = in vivo; settings: male, mouse, po, 25 mg/kg, Tmax
Description: (§1) The Jevtana (10 mg/mL) solution contains 0.26 mg/mL polysorbate 80 and 15% (w/v) ethanol, and is adjusted to pH 2-6 with citric acid. […] The stock solution was further diluted 5-fold with water to reach a 2.5 mg/mL dosing solution for oral administration. The vehicle solution only consists of polysorbate 80, ethanol and water (1:1:8, v/v/v). […] All dosing solutions were prepared freshly on the day of the experiment.
(§2) At the termination time point of 24 hours, mice were anesthetized using an isoflurane evaporator with 3% isoflurane with 0.8 L/min air and 0.3 L/min oxygen. A final blood sample was taken using cardiac puncture, using Eppendorf tubes previously prepared with heparin as an anticoagulant. Subsequently, the anesthetized mice were sacrificed by cervical dislocation and the tissues of interest were collected. Brain, liver, spleen, kidney, small intestine, and testis were collected. The small intestinal content (SIC) was separately collected by removing this from the small intestinal tissue, which was subsequently rinsed with saline to remove possibly fecal residue. The blood samples were centrifuged at 9,000×g for 6 minutes at 4° C., and the plasma fraction was isolated and stored at −30° C. until analysis. Brain, liver, spleen, kidney, small intestinal tissue, SIC, and testis were homogenized in a FastPrep-24™ 5G homogenizer (M. P. Biomedicals, Santa Ana, CA, USA) for 1 min with 1, 3, 1, 2, 3, 2, and 1 mL of 2% (w/v) BSA in Milli-Q water, respectively. Until analysis of the samples, they were all stored at −30° C.
(§3) Pharmacokinetic parameters were estimated by non-compartmental analysis using the software package of PK solutions 2.0.2 (SUMMIT, Research Service). The area under the curve (AUC) of the plasma-concentration time curve for all the compounds was calculated using the linear trapezoidal rule without extrapolating to infinity. The peak plasma concentration (Cmax) and the time to reach peak plasma concentration (Tmax) were obtained directly from the individual raw data. For the statistical analysis and the graphs GraphPad Prism 9 (GraphPad Software Inc., La Jolla, CA, USA) was used. The statistics for the comparison of multiple groups were calculated with the one-way analysis of variance (ANOVA), whereas Sidak's post hoc correction was performed. Log-transformation before statistical analysis was applied, when variances within the groups were not homogeneously distributed. Differences were considered statistically significant when P<0.05. All data are presented as geometric mean±SD.
The last parameter is in many cases the most useful, as it takes the overall exposure into account.

[2] = in vivo; settings: male, mouse, po; for AUC(0-t): AUC0-24 h
Description: as §1, §2, §3

[3] = Plasma pharmacokinetics and tissue distribution 2 h after oral cabazitaxel 10 mg/kg with vehicle or 25 mg/kg ritonavir in wild-type, Oatp1a/1b−/−, Oatp1a/1b/2b1−/−, OATP1B1- and OATP1B3-transgenic mice; format: in vivo; settings: ritonavir 25 mg/kg oral, cabazitaxel 10 mg/kg oral; for CLiver / Cbrain / Pbrain, brain accumulation per h / SIC (% of dose), small intestinal content: 2 h; for AUC(0-t) / Cmax / Tmax: male, FVB, mouse, plasma, po, 25 mg/kg; for AUC(0-t): AUC0-[…]
Description: All animals were fasted 2 to 3 hours prior to the start of the experiment to minimize variation in absorption after oral administration. […] Subsequently, cardiac puncture was performed with a heparinized needle and syringe collecting a final blood sample. […] All samples were stored at −30° C. until analysis.
Differences were considered statistically significant when P<0.05. All data are presented as geometric mean±SD.

[4] = input of human simulation, cited from earlier work

## CC(C)c1nc(CN(C)C(=O)N[C@H](C(=O)N[C@@H](Cc2ccccc2)C[C@H](O)[C@H](Cc2ccccc2)NC(=O)OCc2cncs2)C(C)C)cs1 [ritonavir]
[1]; Cyp3a−/− (FVB background)
  Tmax: 2.33 ± 0.82 h
[1]; wild-type FVB
  Tmax: 2 h
[2]; Cyp3aXAV (human CYP3A in Cyp3a−/−, FVB background), 1 mg/kg
  AUC(0-t): 0.000447 ± 0.000766 µM·h
[2]; FVB (wild-type), 1 mg/kg
  AUC(0-t): 0.00591 ± 0.0018 µM·h
[2]; FVB, Cyp3aXAV, 1 mg/kg
  Cmax: 0.532 ± 1.08 nM
  Tmax: 82.8 ± 195 min
[2]; FVB, Cyp3aXAV, 10 mg/kg
  AUC(0-t): 0.075 ± 0.0188 µM·h
  Cmax: 82.9 ± 15.9 nM
  Tmax: 15 min
[2]; FVB, wild-type, 1 mg/kg
  Cmax: 5.76 ± 1.38 nM
  Tmax: 19.8 ± 7.8 min
[2]; FVB, wild-type, 10 mg/kg
  AUC(0-t): 1.44 ± 0.529 µM·h
  Cmax: 749 ± 322 nM
  Tmax: 55.2 ± 12 min
[3]; OATP1B1-transgenic mice
  CLiver: 42478 ± 7201 pmol/g
  Cbrain: 277 ± 96.0 pmol/g
  Pbrain, brain accumulation per h: 0.012 ± 0.002 h⁻¹
  SIC (% of dose), small intestinal content: 5.81 ± 3.14 % of dose
  AUC(0-t): 14.3 ± 2.02 µM·h
  Cmax: 8.35 ± 1.3 µM
  Tmax: 1.17 h
[3]; OATP1B3-transgenic mice
  CLiver: 45512 ± 4650 pmol/g
  Cbrain: 249 ± 47.9 pmol/g
  Pbrain, brain accumulation per h: 0.013 ± 0.005 h⁻¹
  SIC (% of dose), small intestinal content: 4.44 ± 2.65 % of dose
  AUC(0-t): 14.8 ± 1.22 µM·h
  Cmax: 8.67 ± 1.15 µM
  Tmax: 1.33 h
[3]; Oatp1a/1b/2b1−/− mice
  CLiver: 38153 ± 8561 pmol/g
  Cbrain: 236 ± 82.5 pmol/g
  Pbrain, brain accumulation per h: 0.014 ± 0.003 h⁻¹
  SIC (% of dose), small intestinal content: 6.03 ± 3.23 % of dose
  AUC(0-t): 13.1 ± 2.14 µM·h
  Cmax: 7.74 ± 1.12 µM
  Tmax: 1 h
[3]; Oatp1a/1b−/− mice
  CLiver: 43800 ± 5797 pmol/g
  Cbrain: 306 ± 45.5 pmol/g
  Pbrain, brain accumulation per h: 0.014 ± 0.003 h⁻¹
  SIC (% of dose), small intestinal content: 3.84 ± 2.08 % of dose
  AUC(0-t): 16.9 ± 3.95 µM·h
  Cmax: 11.2 ± 5.21 µM
  Tmax: 1.21 h
[3]; wild-type mice
  AUC(0-t): 5.96 ± 1.15 µM·h
  Cmax: 3.62 ± 0.765 µM
  Tmax: 0.667 h
  CLiver: 44998 ± 6028 pmol/g
  Pbrain, brain accumulation per h: 0.010 ± 0.002 h⁻¹
  SIC (% of dose), small intestinal content: 3.90 ± 2.22 % of dose
[4]
  IIV CL: 46.7 CV%
[4]; source (18)
  CL: 7.72 L/h
  IIV CV: 12.8 CV%
  IIV F: 52.2 CV%
  IIV Vc: 93.5 CV%
  IOV CV: 22.2 CV%
  IOV MAT: 32.1 CV%
  MAT: 8.45 h
  Q: 3.99 L/h
  V: 23 L
  Vp: 17.9 L
